In PubChem BioAssay (NCI):
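Step 1: Grow cells in 96-well plates. Step 2: Expose to compound for 48 hours at 5 concentrations. Step 3: Interpolate endpoints linearly; if unreached, use highest concentration. TGI: total growth inhibition.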

How the values were obtained:
Test in all cases: DTP human tumour cell line panel, 48 h
A549 NSCLC = system: A549 NSCLC
HL-60(TB) leukemia = system: HL-60(TB) leukemia
HOP-62 NSCLC = system: HOP-62 NSCLC
K-562 leukemia = system: K-562 leukemia
KM12 colon = system: KM12 colon
LOX IMVI melanoma = system: LOX IMVI melanoma
MCF7 breast = system: MCF7 breast
MOLT-4 leukemia = system: MOLT-4 leukemia
NCI-H460 lung = system: NCI-H460 lung
NCI-H522 lung = system: NCI-H522 lung
RPMI-8226 leukemia = system: RPMI-8226 leukemia
RXF 393 renal = system: RXF 393 renal
SF-268 CNS = system: SF-268 CNS
SK-MEL-2 melanoma = system: SK-MEL-2 melanoma
SK-MEL-28 melanoma = system: SK-MEL-28 melanoma
SK-MEL-5 melanoma = system: SK-MEL-5 melanoma
SNB-19 CNS = system: SNB-19 CNS
U251 CNS = system: U251 CNS
UACC-62 melanoma = system: UACC-62 melanoma
OVCAR-4 ovarian = system: OVCAR-4 ovarian

Measured: TGI

C=CCNC(=O)CN(CC(=O)OC)C1CCCCC1N(CC(=O)OC)CC(=O)OC (stereo unspecified)
> 100 µM: A549 NSCLC | HL-60(TB) leukemia | HOP-62 NSCLC | K-562 leukemia | KM12 colon | LOX IMVI melanoma | MCF7 breast | MOLT-4 leukemia | NCI-H460 lung | NCI-H522 lung | RPMI-8226 leukemia | RXF 393 renal | SF-268 CNS | SK-MEL-2 melanoma | SK-MEL-28 melanoma | SK-MEL-5 melanoma | SNB-19 CNS | U251 CNS | UACC-62 melanoma

Cc1cn(C2CC(O)C(Cn3nncc3Cn3ncc(=O)[nH]c3=O)O2)c(=O)[nH]c1=O (stereo unspecified)
> 100 µM: A549 NSCLC | HOP-62 NSCLC | KM12 colon | LOX IMVI melanoma | MCF7 breast | MOLT-4 leukemia | OVCAR-4 ovarian | RPMI-8226 leukemia | RXF 393 renal | SF-268 CNS | SK-MEL-2 melanoma | SK-MEL-28 melanoma | SK-MEL-5 melanoma | SNB-19 CNS | U251 CNS | UACC-62 melanoma

CC(C)=CC(=O)OC1C2C(C)=CC(O)C(O)C2(C)C2C3(O)OCC24C(CC(=O)OC14)C(C)C3O (stereo unspecified)
0.683 µM: HOP-62 NSCLC
0.103 µM: NCI-H522 lung
0.409 µM: HL-60(TB) leukemia
0.131 µM: RPMI-8226 leukemia
0.749 µM: OVCAR-4 ovarian
1.79 µM: K-562 leukemia
0.733 µM: SF-268 CNS
0.248 µM: U251 CNS
0.519 µM: SNB-19 CNS
0.655 µM: SK-MEL-2 melanoma
9.68 µM: A549 NSCLC
0.064 µM: SK-MEL-5 melanoma
0.199 µM: SK-MEL-28 melanoma
0.933 µM: RXF 393 renal
0.325 µM: LOX IMVI melanoma
0.107 µM: MCF7 breast
1.31 µM: MOLT-4 leukemia
0.337 µM: NCI-H460 lung
0.263 µM: UACC-62 melanoma
0.622 µM: KM12 colon

O=C(O)C12CC3CC(C1)C2C=C3P(=O)(O)O (stereo unspecified)
> 100 µM: HL-60(TB) leukemia | HOP-62 NSCLC | K-562 leukemia | KM12 colon | LOX IMVI melanoma | MOLT-4 leukemia | NCI-H460 lung | NCI-H522 lung | OVCAR-4 ovarian | RPMI-8226 leukemia | RXF 393 renal | SF-268 CNS | SK-MEL-2 melanoma | SK-MEL-28 melanoma | U251 CNS | UACC-62 melanoma
